Data on 5 compounds can be found in ChEMBL document CHEMBL1201862, “PubChem BioAssay data set” (2004).

Calls of active or inactive are those of the source.

For assay [1], the target named is Beta-2 adrenergic receptor (Homo sapiens, UniProt P07550). The experiment in a line: beta2AR agonists driving receptor internalization, dose response, cell-based, FAP fluorogen, flow cytometry, cherry pick 1 (AID 588763). It is filed as functional. (A flow cytometer gives signals particle by particle.)
For assay [2], the target named is T1, Caspase-3 (Homo sapiens, UniProt P42574).
T1 sequence (P42574 whole entry): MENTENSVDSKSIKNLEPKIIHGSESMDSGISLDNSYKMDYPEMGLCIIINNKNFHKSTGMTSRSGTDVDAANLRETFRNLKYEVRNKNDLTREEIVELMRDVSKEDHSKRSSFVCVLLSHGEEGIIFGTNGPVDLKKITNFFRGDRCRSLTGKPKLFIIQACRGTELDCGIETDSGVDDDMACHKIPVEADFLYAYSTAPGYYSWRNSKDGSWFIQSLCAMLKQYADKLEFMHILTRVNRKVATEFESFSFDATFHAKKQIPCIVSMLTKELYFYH
The experiment in a line: caspase-3 inhibitors as off-family protease, SAR follow-up, selectivity assay for SENP protease inhibitor project, biochemical, luminescence, set 2 (AID 588599). It is filed as functional.

The target of assay [3] is T2, Sentrin-specific protease 8 (Homo sapiens, UniProt Q96LD8).
T2 sequence (Q96LD8 whole entry): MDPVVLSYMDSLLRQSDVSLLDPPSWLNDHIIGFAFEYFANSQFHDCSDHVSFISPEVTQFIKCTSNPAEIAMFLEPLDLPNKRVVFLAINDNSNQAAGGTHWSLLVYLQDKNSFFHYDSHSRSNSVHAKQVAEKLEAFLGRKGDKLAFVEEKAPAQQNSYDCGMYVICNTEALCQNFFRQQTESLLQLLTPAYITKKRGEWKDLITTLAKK
The assay can be described thus: SENP8 protease inhibitors, SAR follow-up, biochemical, luminescence, set 2 (AID 588601). It is filed as functional.

Assay [4] addresses T3, Sentrin-specific protease 7 (Homo sapiens, UniProt Q9BQF6).
T3 sequence (Q9BQF6 whole entry): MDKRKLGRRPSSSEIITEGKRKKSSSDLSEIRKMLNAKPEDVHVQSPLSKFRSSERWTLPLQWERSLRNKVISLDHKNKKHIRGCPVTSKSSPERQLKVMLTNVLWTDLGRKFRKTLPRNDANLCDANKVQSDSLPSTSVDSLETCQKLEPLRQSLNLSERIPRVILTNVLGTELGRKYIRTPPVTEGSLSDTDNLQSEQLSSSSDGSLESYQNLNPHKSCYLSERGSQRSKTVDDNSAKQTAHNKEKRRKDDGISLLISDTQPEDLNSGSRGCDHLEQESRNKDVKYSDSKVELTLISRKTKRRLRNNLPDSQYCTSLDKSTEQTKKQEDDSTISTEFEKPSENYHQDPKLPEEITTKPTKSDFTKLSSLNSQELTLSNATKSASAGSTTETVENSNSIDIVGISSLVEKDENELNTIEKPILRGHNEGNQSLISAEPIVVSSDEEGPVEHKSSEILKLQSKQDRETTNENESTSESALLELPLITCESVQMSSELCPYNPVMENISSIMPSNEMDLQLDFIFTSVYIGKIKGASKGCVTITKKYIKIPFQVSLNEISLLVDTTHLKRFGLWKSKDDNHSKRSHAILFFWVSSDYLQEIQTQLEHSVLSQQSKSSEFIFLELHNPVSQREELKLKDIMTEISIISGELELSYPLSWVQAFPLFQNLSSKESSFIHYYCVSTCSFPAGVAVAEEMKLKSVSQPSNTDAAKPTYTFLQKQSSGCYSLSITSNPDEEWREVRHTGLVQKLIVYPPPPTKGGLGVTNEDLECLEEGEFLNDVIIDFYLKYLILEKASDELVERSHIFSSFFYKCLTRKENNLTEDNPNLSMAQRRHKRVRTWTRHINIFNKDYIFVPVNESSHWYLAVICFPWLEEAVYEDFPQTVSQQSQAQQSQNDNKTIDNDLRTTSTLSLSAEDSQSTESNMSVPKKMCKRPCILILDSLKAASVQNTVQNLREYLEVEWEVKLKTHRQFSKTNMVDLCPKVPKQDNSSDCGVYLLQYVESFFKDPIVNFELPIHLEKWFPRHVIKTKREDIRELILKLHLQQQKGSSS
The experiment in a line: SENP7 protease inhibitors, SAR follow-up, biochemical, luminescence, set 2 (AID 588600). It is filed as functional.

Assay [5] concerns the target T4, Sentrin-specific protease 6 (Homo sapiens, UniProt Q9GZR1).
T4 sequence (Q9GZR1 whole entry): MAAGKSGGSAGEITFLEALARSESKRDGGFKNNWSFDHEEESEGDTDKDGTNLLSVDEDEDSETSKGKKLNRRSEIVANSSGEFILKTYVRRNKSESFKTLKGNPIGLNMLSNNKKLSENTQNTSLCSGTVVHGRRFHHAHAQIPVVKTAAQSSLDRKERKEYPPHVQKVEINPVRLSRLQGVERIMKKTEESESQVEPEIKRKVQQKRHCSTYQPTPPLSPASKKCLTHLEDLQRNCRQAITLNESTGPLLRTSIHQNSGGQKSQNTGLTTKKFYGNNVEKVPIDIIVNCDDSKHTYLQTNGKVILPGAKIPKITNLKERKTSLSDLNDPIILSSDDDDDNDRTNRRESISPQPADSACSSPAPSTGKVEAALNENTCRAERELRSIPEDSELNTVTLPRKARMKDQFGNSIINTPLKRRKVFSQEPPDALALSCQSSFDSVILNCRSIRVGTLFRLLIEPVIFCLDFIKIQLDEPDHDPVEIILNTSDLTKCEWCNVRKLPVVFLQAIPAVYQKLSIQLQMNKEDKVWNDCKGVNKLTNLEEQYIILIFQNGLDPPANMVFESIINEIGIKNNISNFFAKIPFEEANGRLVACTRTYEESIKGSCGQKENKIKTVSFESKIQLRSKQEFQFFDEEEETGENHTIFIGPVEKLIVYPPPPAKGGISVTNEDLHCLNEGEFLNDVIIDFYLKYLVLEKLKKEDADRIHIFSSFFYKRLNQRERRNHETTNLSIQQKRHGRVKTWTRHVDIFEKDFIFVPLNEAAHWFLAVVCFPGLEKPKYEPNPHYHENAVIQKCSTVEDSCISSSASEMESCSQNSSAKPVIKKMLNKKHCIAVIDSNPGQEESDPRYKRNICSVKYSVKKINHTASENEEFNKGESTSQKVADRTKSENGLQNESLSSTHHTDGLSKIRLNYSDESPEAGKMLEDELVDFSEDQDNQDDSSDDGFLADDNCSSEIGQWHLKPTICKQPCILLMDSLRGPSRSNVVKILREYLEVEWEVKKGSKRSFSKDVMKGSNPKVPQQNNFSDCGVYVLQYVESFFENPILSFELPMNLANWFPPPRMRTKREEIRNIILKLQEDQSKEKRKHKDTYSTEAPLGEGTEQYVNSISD
The assay can be described thus: SENP6 protease inhibitors, SAR follow-up, biochemical, luminescence, set 2 (AID 588598). It is filed as functional.

The target in assay [6] is T2, Sentrin-specific protease 8. The experiment in a line: SENP8 protease inhibitors, SAR follow-up, biochemical, luminescence (AID 504501). It is filed as functional.
For assay [7], the target named is T1, Caspase-3. The assay can be described thus: SAR Analysis of small molecule inhibitors of Sentrin-specific proteases (SENPs) using a Caspase-3 Selectivity assay. [Related pubchem assays (depositor defined):AID2540, AID2599, AID434973, AID489001]. It is filed as functional.
The target in assay [8] is T4, Sentrin-specific protease 6. The assay can be described thus: SAR Analysis of small molecule inhibitors of Sentrin-specific protease 6 (SENP6) using a Luminescent assay. [Related pubchem assays (depositor defined):AID2582, AID2599]. It is filed as functional.
In assay [9] the target is T3, Sentrin-specific protease 7. The experiment in a line: SENP7 protease inhibitors, SAR follow-up, biochemical, luminescence (AID 504497). It is filed as functional.
A short description of assay [10]: inhibitors of intracellular T. cruzi replication, confirmation, NIH3T3 host cells, beta-gal luminescence (AID 2044).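 Also: intracellular parasites grown in NIH/3T3 mouse fibroblasts as host cells; luminescent beta-galactosidase reporter signal from transgenic T. cruzi replicating inside host cells; inhibitors lower the luminescence signal.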 It is filed as functional, cell-based.
Another assay addresses Mucolipin-3 (Homo sapiens, UniProt Q8TDD5). The experiment in a line: Dose response cell-based high-throughput screening assay for agonists of the transient receptor potential channel ML3 (TRPML3). [Related pubchem assays: 1526, 1424, 1448 ]. It is filed as functional.
The nature of assay [11]: cytotoxicity toward NIH3T3 fibroblasts, dose response, counter-screen, cell-based, ATP luminescence, mouse fibroblasts (AID 2010).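 Also: cells exposed to compound for about 90 hours before reading.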 It is filed as functional. (The purpose of a counterscreen is to sort out artefacts and off-target activity.)
In the next assay the target is Ion channel NompC (Danio rerio, UniProt Q7T1G6). The assay can be described thus: Fluorescence counterscreen assay for TRPML3 agonists: dose response cell-based high-throughput screening assay to identify agonists of the transient receptor potential channel N1 (TRPN1). [Related pubchem assays: 1526, 1424, 1448 ]. It is filed as functional.
A further assay has as its system CHO. The experiment in a line: cytotoxicity in TLR9-MyD88 CHO cells, dose response, cytotoxicity control for TLR9-MyD88 binding inhibitor project, cell-based, luminescence (AID 588339).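 Also: CHO cells stably coexpressing TLR9 and MyD88 fusions from primary screen; compound exposure lasted 48 hours before viability readout.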 It is filed as functional, hamster. The conditions noted are these: Cricetulus griseus.
A short description of assay [12]: Fluorescence-based cell-based high throughput dose response assay for inhibitors of the interaction of nucleotide-binding oligomerization domain containing 2 (NOD2) and the receptor-interacting serine-threonine kinase 2 (RIPK2). It is filed as functional, Homo sapiens. The conditions noted are these: Homo sapiens.
A further assay deals with Paired box protein Pax-8 (Homo sapiens, UniProt Q06710). The experiment in a line: inhibitors of PAX8-driven TPO luciferase reporter, dose response, RMG-I cells, cherry-pick (AID 687027).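 Also: luciferase reporter driven by Pax8 target thyroperoxidase promoter measured by SteadyGlo luminescence.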 It is filed as functional, cell-based. In general terms: In a reporter assay the amount or activity of a reporter protein is the signal.
Assay [13] is described as follows: microbe, parasite or virus in culture. It is filed as functional. The conditions noted are these: Mycobacterium tuberculosis.
For a further assay, the system named is HEK293. The assay can be described thus: inhibitors of LMP1-driven NF-kB reporter, dose response, cell-based, HEK293, luciferase, cherry-pick (AID 588343). It is filed as functional. The conditions noted are these: Homo sapiens.
The target in assay [14] is Latent membrane protein 1 (Human herpesvirus 4 (strain B95-8), UniProt P03230). The assay can be described thus: TES1-eGFP NF-kB reporter inhibition versus Tet-On dsRED, dose response, selectivity assay for LMP1 NF-kB inhibitor project, imaging, HEK293T, dual-color eGFP/dsRED, cherry-picks (AID 588398). It is filed as functional, cell-based.
For the next assay, the system named is INS1. The experiment in a line: beta cell apoptosis inhibitors, cytokine rescue, dose response, luminescence, retest (AID 449756).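 Also: cell death triggered by IL-1 beta plus TNF-alpha plus IFN-gamma mixture; protective hits raise ATP signal compared with cytokine alone wells.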 It is filed as functional, cell-based. The note with it: Rattus norvegicus.

Paired box protein Pax-8, sequence (Q06710 whole entry): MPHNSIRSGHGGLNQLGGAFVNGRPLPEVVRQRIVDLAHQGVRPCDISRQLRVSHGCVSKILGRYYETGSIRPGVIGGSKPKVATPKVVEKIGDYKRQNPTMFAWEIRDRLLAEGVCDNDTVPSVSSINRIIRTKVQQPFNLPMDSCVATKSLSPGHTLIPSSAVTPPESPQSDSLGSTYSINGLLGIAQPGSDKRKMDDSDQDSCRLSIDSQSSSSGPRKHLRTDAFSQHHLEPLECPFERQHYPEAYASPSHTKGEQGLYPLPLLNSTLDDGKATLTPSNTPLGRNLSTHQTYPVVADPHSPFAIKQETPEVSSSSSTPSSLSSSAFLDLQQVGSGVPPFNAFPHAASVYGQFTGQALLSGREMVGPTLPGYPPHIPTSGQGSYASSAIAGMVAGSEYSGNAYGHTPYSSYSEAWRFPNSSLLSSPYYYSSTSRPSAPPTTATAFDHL
Ion channel NompC, sequence (Q7T1G6 whole entry, the tested form may be a part): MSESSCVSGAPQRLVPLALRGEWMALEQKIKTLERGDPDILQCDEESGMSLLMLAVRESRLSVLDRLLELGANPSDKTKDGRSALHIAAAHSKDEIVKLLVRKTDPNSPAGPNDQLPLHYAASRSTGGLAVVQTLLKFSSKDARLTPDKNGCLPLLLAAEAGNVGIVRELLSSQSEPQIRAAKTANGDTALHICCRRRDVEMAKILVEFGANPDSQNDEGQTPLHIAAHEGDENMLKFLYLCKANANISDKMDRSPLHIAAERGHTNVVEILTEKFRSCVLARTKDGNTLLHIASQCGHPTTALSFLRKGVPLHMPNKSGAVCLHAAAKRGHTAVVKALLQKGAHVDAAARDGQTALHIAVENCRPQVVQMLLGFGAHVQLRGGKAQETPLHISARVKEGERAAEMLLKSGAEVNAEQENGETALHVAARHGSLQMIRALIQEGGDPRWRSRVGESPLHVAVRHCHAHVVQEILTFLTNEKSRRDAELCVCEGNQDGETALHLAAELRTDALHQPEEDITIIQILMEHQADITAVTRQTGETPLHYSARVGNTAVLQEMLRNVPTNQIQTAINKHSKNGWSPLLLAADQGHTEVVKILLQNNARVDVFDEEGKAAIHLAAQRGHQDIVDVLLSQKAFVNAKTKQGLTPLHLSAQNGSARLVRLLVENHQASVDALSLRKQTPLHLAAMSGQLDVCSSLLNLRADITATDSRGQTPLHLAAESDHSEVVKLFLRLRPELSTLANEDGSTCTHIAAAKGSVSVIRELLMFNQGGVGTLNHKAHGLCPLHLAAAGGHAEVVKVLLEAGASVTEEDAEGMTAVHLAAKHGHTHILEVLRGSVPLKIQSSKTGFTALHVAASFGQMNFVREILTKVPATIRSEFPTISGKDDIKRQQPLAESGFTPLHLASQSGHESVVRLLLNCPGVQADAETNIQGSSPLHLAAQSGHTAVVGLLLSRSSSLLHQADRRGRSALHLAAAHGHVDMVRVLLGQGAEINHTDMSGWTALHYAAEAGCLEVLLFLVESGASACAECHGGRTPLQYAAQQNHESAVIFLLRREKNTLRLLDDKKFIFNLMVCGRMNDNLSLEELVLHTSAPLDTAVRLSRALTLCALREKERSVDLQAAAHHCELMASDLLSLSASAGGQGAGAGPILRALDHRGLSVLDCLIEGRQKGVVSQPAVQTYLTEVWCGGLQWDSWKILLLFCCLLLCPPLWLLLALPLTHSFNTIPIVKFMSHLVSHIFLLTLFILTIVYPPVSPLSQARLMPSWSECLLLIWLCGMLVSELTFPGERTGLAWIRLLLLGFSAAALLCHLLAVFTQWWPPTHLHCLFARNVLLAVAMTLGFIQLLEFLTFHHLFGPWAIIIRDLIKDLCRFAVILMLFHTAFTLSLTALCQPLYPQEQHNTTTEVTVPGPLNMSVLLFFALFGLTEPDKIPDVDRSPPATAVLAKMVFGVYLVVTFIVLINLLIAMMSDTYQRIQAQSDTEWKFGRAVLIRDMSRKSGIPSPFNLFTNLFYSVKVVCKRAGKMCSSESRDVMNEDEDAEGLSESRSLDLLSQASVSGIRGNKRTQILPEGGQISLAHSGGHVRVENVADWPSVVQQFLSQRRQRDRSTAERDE
Beta-2 adrenergic receptor, sequence (P07550 whole entry): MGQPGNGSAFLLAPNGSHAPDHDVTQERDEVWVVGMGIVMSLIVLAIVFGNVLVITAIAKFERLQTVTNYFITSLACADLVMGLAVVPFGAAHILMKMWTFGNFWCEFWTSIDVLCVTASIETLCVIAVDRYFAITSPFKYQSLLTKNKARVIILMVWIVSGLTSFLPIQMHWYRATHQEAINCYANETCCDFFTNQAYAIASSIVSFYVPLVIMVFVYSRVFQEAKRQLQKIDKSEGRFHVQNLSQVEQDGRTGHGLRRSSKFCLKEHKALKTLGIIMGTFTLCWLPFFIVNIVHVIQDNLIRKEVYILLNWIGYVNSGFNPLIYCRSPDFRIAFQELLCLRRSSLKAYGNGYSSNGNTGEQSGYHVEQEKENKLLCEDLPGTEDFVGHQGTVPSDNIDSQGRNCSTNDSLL
Latent membrane protein 1, sequence (P03230 whole entry): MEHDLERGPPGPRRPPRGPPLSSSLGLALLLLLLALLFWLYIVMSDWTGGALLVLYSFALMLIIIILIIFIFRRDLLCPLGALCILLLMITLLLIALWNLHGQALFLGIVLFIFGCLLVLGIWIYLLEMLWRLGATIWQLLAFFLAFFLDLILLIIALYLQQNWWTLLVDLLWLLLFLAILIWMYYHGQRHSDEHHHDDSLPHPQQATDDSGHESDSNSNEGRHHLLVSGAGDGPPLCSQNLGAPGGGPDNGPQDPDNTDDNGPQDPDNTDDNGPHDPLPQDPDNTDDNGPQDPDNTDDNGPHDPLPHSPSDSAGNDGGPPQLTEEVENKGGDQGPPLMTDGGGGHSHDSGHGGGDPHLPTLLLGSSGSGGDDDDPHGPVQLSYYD
Mucolipin-3, sequence (Q8TDD5 whole entry): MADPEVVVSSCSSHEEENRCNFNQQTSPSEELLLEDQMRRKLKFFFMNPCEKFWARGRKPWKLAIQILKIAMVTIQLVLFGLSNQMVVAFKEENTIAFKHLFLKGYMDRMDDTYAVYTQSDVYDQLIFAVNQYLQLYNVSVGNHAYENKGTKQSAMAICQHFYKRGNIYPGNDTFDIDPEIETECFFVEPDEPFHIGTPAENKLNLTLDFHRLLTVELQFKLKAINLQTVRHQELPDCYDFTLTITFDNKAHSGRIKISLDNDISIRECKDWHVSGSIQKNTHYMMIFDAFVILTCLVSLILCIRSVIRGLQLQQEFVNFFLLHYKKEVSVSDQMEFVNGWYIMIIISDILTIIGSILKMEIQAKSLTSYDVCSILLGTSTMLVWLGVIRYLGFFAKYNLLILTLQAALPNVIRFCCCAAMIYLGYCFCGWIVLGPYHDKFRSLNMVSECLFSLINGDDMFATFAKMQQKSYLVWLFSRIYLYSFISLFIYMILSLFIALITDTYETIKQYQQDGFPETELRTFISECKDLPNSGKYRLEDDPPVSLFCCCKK

As to `CN(Cc1cccs1)c1nc(-c2cccnc2)nc2ccccc12`, the EC50 in assay [1] is 1.26 µM (active).
For the compound `Cc1ccc(S(=O)(=O)NCCC(=O)N/N=C\c2c[nH]c3ccccc23)cc1`, the IC50 (at Caspase-3 [2]; in assay [3]; in assay [4]; in assay [5]) was > 99 µM (inactive) throughout.
Consider `COc1cc(Cc2nccc3cc(OC)c(OC)cc23)c(C(=O)c2ccccc2)cc1OC`, for which the IC50 in assay [6] was > 99 µM (inactive); at Caspase-3 [7], 71.6 µM (active); in assay [8] it was 50.9 µM (active); in assay [9], > 99 µM (inactive).
For the compound `O=c1c(Cl)c(Cl)cnn1Cc1nnc(-c2ccccc2Br)o1`, the 50% effective concentration (EC50) in [10] was 2.03 µM (active); at Mucolipin-3, 3.15 µM (active); in [11] it was 2.51 µM (active); on Ion channel NompC it was 11.3 µM (not active). For the same compound, the 50% inhibitory concentration (IC50) in the assay with CHO was 1.81 µM (active); in [12], 7.65 µM (active). The AC50 at Paired box protein Pax-8 is 7.63 µM (active).
Regarding `Clc1ccc(SCc2cc(N3CCOCC3)nc(-c3ccccn3)n2)cc1`, the EC50 in assay [10] is 1.51 µM (active); in [11], > 60 µM (not active). In assay [13], the CC50 was 19.5 µM (active). The AC50 in the assay on HEK293 is 12.1 µM (active); in [14], 10.5 µM (active); with INS1, 2.57 µM (active).

By EC50 is commonly meant the concentration that produces a half-maximal response. Usually IC50 stands for the midpoint of a concentration-inhibition curve. As usually defined, the AC50 is the concentration at which the activity in the assay is half-maximal.
